US20050192261A1, “Methods and reagents for the treatment of immunoinflammatory disorders” (priority 2003, published 2005)
Like-named read-outs stand apart in the source and are kept apart here.

System: TNFα secretion in white blood cells from human buffy coat stimulated with phorbol 12-myristate 13-acetate and ionomycin
Experiment: TNFα secretion assay
Details: for inhibition at 0.5 µM / inhibition at 1 µM / inhibition at 2 µM / inhibition at 4 µM / inhibition at 8 µM / inhibition at 0.2 µM / inhibition at 13 µM / inhibition at 26 µM: Homo sapiens; for inhibition at 0.5 µM: read-out: % inhibition of TNFα secretion, Ibudilast 0.5 μM; for inhibition at 1 µM: read-out: % inhibition of TNFα secretion, Ibudilast 1 μM; for inhibition at 2 µM: read-out: % inhibition of TNFα secretion, Ibudilast 2 μM; for inhibition at 4 µM: read-out: % inhibition of TNFα secretion, Ibudilast 4 μM; for inhibition at 8 µM: read-out: % inhibition of TNFα secretion, Ibudilast 8 μM; for inhibition at 0.2 µM: read-out: percent inhibition of TNFα secretion, Loratadine 0.2 μM; for inhibition at 13 µM: read-out: percent inhibition of TNFα secretion, Loratadine 13 μM; for inhibition at 26 µM: read-out: percent inhibition of TNFα secretion, Loratadine 26 μM; for percent inhibition of TNFα secretion: Bromodiphenhydramine HCl μM: 0/0.21/0.43/0.85/1.7/3.4/6.8/14/27
[1] = Bromodiphenhydramine HCl μM r5-r13: 0,0.21,0.43,0.85,1.7,3.4,6.8,14,27
[2] = Cyproheptadine HCl μM r5-r12: 0,0.24,0.48,0.96,1.9,3.9,7.7,15
[3] = Loratadine μM r5-r13: 0,0.2,0.41,0.82,1.6,3.3,6.5,13,26
[4] = Thiethylperazine Maleate μM r5-r13: 0,0.2,0.39,0.78,1.6,3.1,6.3,13,25
[5] = Desipramine HCl: 0/0.25/0.5/1/2/4/8/16/32 μM
[6] = Fluoxetine HCl μM: 0/0.23/0.45/0.9/1.8/3.6/7.2/14/29
[7] = Paroxetine HCl: 0/0.21/0.42/0.83/1.7/3.3/6.7/13/27 μM

Protocol: Drugs were added to the indicated concentration. […] The plate was then washed again with 0.1% Tween 20/PBS. An HRP-luminescent substrate was added to each well, and the light intensity of each well was measured using a plate luminometer.

CC(C)C(=O)c1c(C(C)C)nn2ccccc12 [Ibudilast]
inhibition at 0.5 µM [1]: 19%
inhibition at 0.5 µM [2]: 20%
inhibition at 0.5 µM [3]: 21%
inhibition at 0.5 µM [4]: 23%
inhibition at 1 µM [1]: 24%
inhibition at 1 µM [2]: 23%
inhibition at 1 µM [3]: 32%
inhibition at 1 µM [4]: 27%
inhibition at 2 µM [1]: 36%
inhibition at 2 µM [2]: 32%
inhibition at 2 µM [3]: 35%
inhibition at 2 µM [4]: 38%
inhibition at 4 µM [1]: 43%
inhibition at 4 µM [2]: 36%
inhibition at 4 µM [3]: 39%
inhibition at 4 µM [4]: 42%
inhibition at 8 µM [1]: 41%
inhibition at 8 µM [2]: 41%
inhibition at 8 µM [3]: 43%
inhibition at 8 µM [4]: 48%

CCOC(=O)N1CCC(=C2c3ccc(Cl)cc3CCc3cccnc32)CC1 [Loratadine, loratadine]
inhibition at 0.2 µM [5]: -1.95%
inhibition at 0.2 µM [6]: 3.68%
inhibition at 0.2 µM [7]: -1.38%
inhibition at 13 µM [5]: 31.7%
inhibition at 13 µM [6]: 42.9%
inhibition at 13 µM [7]: 38.3%
inhibition at 26 µM [5]: 41.5%
inhibition at 26 µM [6]: 56.6%
inhibition at 26 µM [7]: 43.4%

CNCCC=C1c2ccccc2CCc2ccccc21.Cl [Nortryptyline HCl]
percent inhibition of TNFα secretion (Nortryptyline HCl 1 μM): 1.7
percent inhibition of TNFα secretion (Nortryptyline HCl 17 μM): 80
percent inhibition of TNFα secretion (Nortryptyline HCl 33 μM): 92
